# Data taken from ChEMBL document CHEMBL3046027, “In vitro and in vivo antifungal activity of synthetic pure isothiocyanates against Sclerotinia sclerotiorum” (Pest Manag Sci, 2011).
# Key:
# [1] = test system: Sclerotinia sclerotiorum; assay: Antifungal activity against Sclerotinia sclerotiorum assessed as inhibition of mycelial growth in contact phase at 1672 umol/l measured at 20 degC after 5 days; assay type: functional; conditions: 120 h, read-out: GI
# [2] = test system: Sclerotinia sclerotiorum; assay: Antifungal activity against Sclerotinia sclerotiorum assessed as inhibition of mycelial growth in contact phase at 585 umol/l measured at 20 degC after 5 days; assay type: functional; conditions: 120 h, read-out: GI
# [3] = test system: Sclerotinia sclerotiorum; assay: Antifungal activity against Sclerotinia sclerotiorum assessed as inhibition of germination in volatile phase at 42 umol/l measured at 20 degC after 5 days; assay type: functional; conditions: 120 h
# [4] = test system: Sclerotinia sclerotiorum; assay: In vivo antifungal Sclerotinia sclerotiorum in Pepper (Capsicum annuum L. cv. Sera Demre) assessed as inhibition of mycelial growth in volatile phase at 84 umol/L measured after 10 to 14 weeks; assay type: functional
# [5] = test system: Sclerotinia sclerotiorum; assay: Antifungal activity against Sclerotinia sclerotiorum assessed as inhibition of mycelial growth in volatile phase at 42 umol/l measured at 20 degC after 5 days; assay type: functional; conditions: 120 h, read-out: GI
# [6] = test system: Sclerotinia sclerotiorum; assay: Fungistatic activity in Sclerotinia sclerotiorum assessed as viability in volatile phase at 418 umol/l measured at 20 degC after 5 days relative to control; assay type: functional; conditions: 120 h, read-out: GI
# [7] = test system: Sclerotinia sclerotiorum; assay: Fungistatic activity in Sclerotinia sclerotiorum assessed as inhibition of mycelial growth in volatile phase measured at 20 degC after 5 days; assay type: functional, organism-based; conditions: 120 h
# [8] = test system: Sclerotinia sclerotiorum; assay: Antifungal activity against Sclerotinia sclerotiorum assessed as inhibition of germination in volatile phase at 418 umol/l measured at 20 degC after 5 days; assay type: functional; conditions: 120 h
# [9] = test system: Sclerotinia sclerotiorum; assay: Antifungal activity against Sclerotinia sclerotiorum assessed as inhibition of germination in volatile phase at 84 umol/l measured at 20 degC after 5 days; assay type: functional; conditions: AT84, 120 h
# [10] = test system: Sclerotinia sclerotiorum; assay: Fungistatic activity in Sclerotinia sclerotiorum assessed as inhibition of carpogenic germination in volatile phase at 836 umol/l measured at 20 degC after 5 days relative to control; assay type: functional; conditions: 120 h
# [11] = test system: Sclerotinia sclerotiorum; assay: Fungistatic activity in Sclerotinia sclerotiorum assessed as inhibition of carpogenic germination in volatile phase at 42 umol/l measured at 20 degC after 5 days relative to control; assay type: functional; conditions: 120 h
# [12] = test system: Sclerotinia sclerotiorum; assay: Antifungal activity against Sclerotinia sclerotiorum assessed as inhibition of mycelial growth in volatile phase at 84 umol/l measured at 20 degC after 5 days; assay type: functional; conditions: 120 h, read-out: GI
# [13] = test system: Sclerotinia sclerotiorum; assay: Fungistatic activity in Sclerotinia sclerotiorum assessed as inhibition of carpogenic germination in volatile phase at 418 umol/l measured at 20 degC after 5 days relative to control; assay type: functional; conditions: 120 h
# [14] = test system: Sclerotinia sclerotiorum; assay: Antifungal activity against Sclerotinia sclerotiorum assessed as inhibition of mycelial growth in volatile phase at 836 umol/l measured at 20 degC after 5 days; assay type: functional; conditions: 120 h, read-out: GI
# [15] = test system: Sclerotinia sclerotiorum; assay: Fungitoxic activity in Sclerotinia sclerotiorum assessed as inhibition of mycelial growth in contact phase at 2508 umol/l measured at 20 degC after 5 days relative to control; assay type: functional; conditions: 120 h
# [16] = test system: Sclerotinia sclerotiorum; assay: Antifungal activity against Sclerotinia sclerotiorum assessed as inhibition of mycelial growth in contact phase at 2508 umol/l measured at 20 degC after 5 days; assay type: functional; conditions: 120 h, read-out: GI
# [17] = test system: Sclerotinia sclerotiorum; assay: In vivo antifungal Sclerotinia sclerotiorum in Pepper (Capsicum annuum L. cv. Sera Demre) assessed as inhibition of mycelial growth in volatile phase at 168 umol/L measured after 10 to 14 weeks; assay type: functional
# [18] = test system: Sclerotinia sclerotiorum; assay: Fungistatic activity in Sclerotinia sclerotiorum assessed as inhibition of mycelial growth in volatile phase at 836 umol/l measured at 20 degC after 5 days relative to control; assay type: functional; conditions: 120 h, read-out: GI
# [19] = test system: Sclerotinia sclerotiorum; assay: Fungistatic activity in Sclerotinia sclerotiorum assessed as inhibition of carpogenic germination in volatile phase at 84 umol/l measured at 20 degC after 5 days relative to control; assay type: functional; conditions: AT84, 120 h
# [20] = test system: Sclerotinia sclerotiorum; assay: Antifungal activity against Sclerotinia sclerotiorum assessed as inhibition of mycelial growth in volatile phase at 418 umol/l measured at 20 degC after 5 days; assay type: functional; conditions: 120 h, read-out: GI
# [21] = test system: Sclerotinia sclerotiorum; assay: Fungistatic activity in Sclerotinia sclerotiorum assessed as sclerotial viability measured at 20 degC after 5 days; assay type: functional, organism-based; conditions: 120 h
# [22] = test system: Sclerotinia sclerotiorum; assay: Fungistatic activity in Sclerotinia sclerotiorum assessed as inhibition of mycelial growth in contact phase at 1672 umol/l measured at 20 degC after 5 days relative to control; assay type: functional; conditions: 120 h, read-out: GI
# [23] = test system: Sclerotinia sclerotiorum; assay: Antifungal activity against Sclerotinia sclerotiorum assessed as inhibition of germination in volatile phase at 836 umol/l measured at 20 degC after 5 days; assay type: functional; conditions: 120 h
# [24] = test system: Sclerotinia sclerotiorum; assay: Antifungal activity against Sclerotinia sclerotiorum assessed as inhibition of mycelial growth in volatile phase at 585 umol/l measured at 20 degC after 5 days; assay type: functional; conditions: 120 h, read-out: GI
# [25] = test system: Sclerotinia sclerotiorum; assay: Fungistatic activity in Sclerotinia sclerotiorum assessed as inhibition of mycelial growth in contact phase measured at 20 degC after 5 days; assay type: functional, organism-based; conditions: 120 h
# [26] = test system: Sclerotinia sclerotiorum; assay: Antifungal activity against Sclerotinia sclerotiorum assessed as inhibition of germination in volatile phase at 251 umol/l measured at 20 degC after 5 days; assay type: functional; conditions: 120 h
# [27] = test system: Sclerotinia sclerotiorum; assay: Antifungal activity against Sclerotinia sclerotiorum assessed as inhibition of mycelial growth in contact phase at 836 umol/l measured at 20 degC after 5 days; assay type: functional; conditions: 120 h, read-out: GI
# [28] = test system: Sclerotinia sclerotiorum; assay: Antifungal activity against Sclerotinia sclerotiorum assessed as inhibition of mycelial growth in contact phase at 752 umol/l measured at 20 degC after 5 days; assay type: functional; conditions: 120 h, read-out: GI
compound,measurement,setting,value
S=C=Nc1ccccc1 [PHENYLISOTHIOCYANATE],inhibition of growth at 1672 µM,[1],100%
same,inhibition of growth at 585 µM,[2],5%
same,inhibition at 42 µM,[3],6.7%
same,inhibition in vivo at 84 µM,[4],61.7%
same,inhibition of growth at 42 µM,[5],20.8%
same,inhibition of growth at 418 µM,[6],100%
same,EC50,[7],134 µM
same,inhibition at 418 µM,[8],100%
same,inhibition at 84 µM,[9],13.3%
same,inhibition at 836 µM,[10],85%
same,inhibition at 42 µM,[11],12.5%
same,inhibition of growth at 84 µM,[12],42.8%
same,inhibition at 418 µM,[13],52.5%
same,inhibition of growth at 836 µM,[14],100%
same,inhibition at 2508 µM,[15],100%
same,inhibition of growth at 2508 µM,[16],100%
same,inhibition in vivo at 168 µM,[17],68.3%
same,inhibition of growth at 836 µM,[18],100%
same,inhibition at 84 µM,[19],52.5%
same,inhibition of growth at 418 µM,[20],70%
same,EC50,[21],192 µM
same,inhibition of growth at 1672 µM,[22],100%
same,inhibition at 836 µM,[23],100%
same,inhibition of growth at 585 µM,[24],74.2%
same,EC50,[25],802 µM
same,inhibition at 251 µM,[26],46.7%
same,inhibition of growth at 836 µM,[27],65.5%
same,inhibition of growth at 752 µM,[28],23.7%
